Values joined by “and” are separate entries in the source; they are usually repeats but may differ in a detail not shown here. Equal values may be shown once.
Key:
P-gp [1] = target: T1, P-gp (Homo sapiens, UniProt P08183); assay: Vesicular transport assay, 3H-NMQ uptake in P-gp membrane vesicles; type: biochemical; conditions: for % Uptake of 3H-NMQ P-gp: antioxidant 200 µM, uptake with DMSO set as 100%, mean ± SD, three replicates, membrane vesicles; for inhibition at 20 min, 200 µM: human, Sf9 membrane vesicles overexpressing human P-gp, pH 7, probe 3H-NMQ, 3H-NMQ
T1 construct: purchased ThermoFisher Scientific GM0015; host or cells: Sf9 membrane vesicles
Description: (§1) The vesicular transport assay was performed using Spodoptera frugiperda 9 (Sf9) membrane vesicles overexpressing human P-gp or BCRP, as reported previously with minor modifications. In brief, Isoplate 96-well flat-bottom white plates were preincubated with HBSS containing 0.5 mg/mL BSA on an orbital shaker in a 37 °C incubator at 90 rpm for 60 min followed by washing with HBSS. The assay mixture (75 µL/well) contained a probe substrate and either vehicle control, a known inhibitor of P-gp or BCRP, or an antioxidant, in vesicle uptake buffer (50 mM MOPS-Tris, pH 7.0 + 70 mM KCl + 7.5 mM MgCl2) prewarmed to 37 °C. After addition of the assay mixture, 5 μL/well (5 μg/μL stock concentration of the vesicles) of vesicles overexpressing human P-gp or BCRP was added. Uptake assays were initiated by adding 20 μL of either 25 mM adenosine triphosphate (ATP) or 25 mM adenosine monophosphate (AMP) to a final concentration of 5 mM. Plates were incubated at 37 °C for 20 min with orbital shaking (90 rpm). After 20 min, the uptake was quenched by adding 150 μL of ice-cold wash buffer (40 mM MOPS-Tris, pH 7.0 + 70 mM KCl) to each well, and the mixture was transferred to a 96-well filtration plate. Vacuum was applied, and the vesicles were washed three times with wash buffer. Vesicles were then lysed with 100 µL of MicroScint-20.

[2] = Estimation of intestinal luminal concentration (Igut), dose/250 mL; conditions: estimated from maximum oral amount (AP 10 mg, BHA 8 mg) in 250 mL intestinal fluid
Description: Igut is intestinal luminal concentration estimated as dose/250 mL. The Igut concentration was estimated using the following equation: Igut=A÷MW×V×10^6 where Igut is the estimated intestinal luminal concentration (µM), A is the amount of antioxidant in an oral dosage (mg), MW is the molecular weight, and V is the volume of intestinal fluid, i.e., 250 mL.

[3] = Table S1; source not stated; cited from earlier work
OATP2B1 [4] = target: T2, OATP2B1 (Homo sapiens, UniProt O94956); assay: 3H-valsartan uptake inhibition in HEK-293-OATP2B1 cells; conditions: IC50 OATP2B1, valsartan uptake, substrate 3H-valsartan, three independent experiments
T2 sequence (O94956 1-709): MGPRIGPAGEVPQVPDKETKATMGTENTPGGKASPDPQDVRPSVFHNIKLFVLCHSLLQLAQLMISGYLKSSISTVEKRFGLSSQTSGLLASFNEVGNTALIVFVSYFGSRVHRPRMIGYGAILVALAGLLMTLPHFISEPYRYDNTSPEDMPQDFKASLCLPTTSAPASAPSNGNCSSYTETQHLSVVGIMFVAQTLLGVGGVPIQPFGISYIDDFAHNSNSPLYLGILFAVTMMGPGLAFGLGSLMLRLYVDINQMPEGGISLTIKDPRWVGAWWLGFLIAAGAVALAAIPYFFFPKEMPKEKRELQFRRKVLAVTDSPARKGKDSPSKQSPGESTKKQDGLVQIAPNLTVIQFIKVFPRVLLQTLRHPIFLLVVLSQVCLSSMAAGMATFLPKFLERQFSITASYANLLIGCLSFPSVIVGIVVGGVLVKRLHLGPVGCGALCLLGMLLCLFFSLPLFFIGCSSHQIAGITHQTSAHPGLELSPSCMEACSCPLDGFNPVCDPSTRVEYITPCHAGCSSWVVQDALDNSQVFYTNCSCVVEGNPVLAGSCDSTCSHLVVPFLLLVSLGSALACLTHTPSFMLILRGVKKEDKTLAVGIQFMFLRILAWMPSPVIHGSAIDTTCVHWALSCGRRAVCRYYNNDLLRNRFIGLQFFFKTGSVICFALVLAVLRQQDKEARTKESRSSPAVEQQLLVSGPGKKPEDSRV
Description: (§2) The uptake transporter assay was performed as reported previously with minor modifications [15]. A day before the uptake assay, Isoplate 96-well plates were coated with poly-D-lysine in PBS with calcium and magnesium and washed with PBS. […] An assay mixture of ^3H-estrone sulfate, a known inhibitor of OATP2B1, or an antioxidant was prepared and incubated in a 37 °C incubator for 10 min. The cells were washed with ice-cold HBSS three times and incubated with MicroScint fluid on a shaker for 1 h for cell lysis. Radioactivity was measured by liquid scintillation counting with a MicroBeta^2® microplate counter. […] On the day of experiment, cells were washed twice with 0.4 mL of HBSS per well and then pre-incubated for 10–20 min in 0.4 mL of HBSS. […] Uptake of ^3H-valsartan was stopped after 15 min by washing three times with ice-cold HBSS. Cells were lysed in 750 µL of lysis buffer (0.1 N NaOH and 0.1% SDS in double-distilled water) per well while shaking for 60 min. A total of 690 µL of the lysate from each well was then added to 2.5 mL of EcoLite scintillation fluid. The radioactivity was determined on a LS6500 Scintillation Counter (Beckman Coulter). Protein concentration was measured with a Pierce™ BCA protein assay kit. The radioactivity in each well was corrected for protein concentration. All values were determined in triplicate, and the final values are expressed as % uptake relative to negative control (1% DMSO).
(§3) Antioxidants were screened at a concentration of 200 μM.

OATP2B1 [5] = target: T2, OATP2B1; assay: Uptake transporter assay, 3H-estrone sulfate uptake in HEK-293-OATP2B1 cells; conditions: for % Uptake of 3H-ES OATP2B1: antioxidant 200 µM, uptake with DMSO set as 100%, mean ± SD, three replicates, HEK-293-OATP2B1 cells
Description: as §2, §3

BCRP = target: T3, BCRP (Homo sapiens, UniProt Q9UNQ0); assay: Vesicular transport assay, 3H-CCK8 uptake in BCRP membrane vesicles; type: biochemical; set-up: purchased ThermoFisher Scientific GM0008; host or cells: Sf9 membrane vesicles; conditions: for % Uptake of 3H-CCK8 BCRP: antioxidant 200 µM, uptake with DMSO set as 100%, mean ± SD, three replicates, membrane vesicles; for inhibition at 20 min, 200 µM: human, Sf9 membrane vesicles overexpressing human BCRP, pH 7, probe 3H-CCK8, 3H-CCK8
T3 sequence (Q9UNQ0 1-655): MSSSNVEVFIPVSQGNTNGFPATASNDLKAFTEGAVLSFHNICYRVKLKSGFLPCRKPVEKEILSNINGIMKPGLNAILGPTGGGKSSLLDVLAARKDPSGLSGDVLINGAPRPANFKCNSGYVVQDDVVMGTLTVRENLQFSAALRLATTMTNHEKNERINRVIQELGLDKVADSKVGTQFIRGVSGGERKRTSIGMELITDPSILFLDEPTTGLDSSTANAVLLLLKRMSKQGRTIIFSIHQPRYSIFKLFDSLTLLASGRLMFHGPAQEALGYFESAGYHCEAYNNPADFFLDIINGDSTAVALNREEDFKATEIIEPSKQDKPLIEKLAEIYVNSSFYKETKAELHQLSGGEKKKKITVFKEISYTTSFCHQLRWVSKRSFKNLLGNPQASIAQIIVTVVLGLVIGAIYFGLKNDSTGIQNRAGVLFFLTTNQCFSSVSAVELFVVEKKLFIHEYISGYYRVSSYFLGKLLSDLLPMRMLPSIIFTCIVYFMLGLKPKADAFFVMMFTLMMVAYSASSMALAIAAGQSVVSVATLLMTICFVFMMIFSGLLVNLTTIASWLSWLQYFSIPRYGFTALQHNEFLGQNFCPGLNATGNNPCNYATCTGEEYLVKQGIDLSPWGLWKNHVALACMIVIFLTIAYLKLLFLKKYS
Description: as §1

P-gp [6] = tested on: P-gp; set-up: method as in PMID 19944162; conditions: cited from earlier work
OATP2B1, P-gp, and BCRP = conditions: cited from earlier work

T1 sequence (P08183 whole entry): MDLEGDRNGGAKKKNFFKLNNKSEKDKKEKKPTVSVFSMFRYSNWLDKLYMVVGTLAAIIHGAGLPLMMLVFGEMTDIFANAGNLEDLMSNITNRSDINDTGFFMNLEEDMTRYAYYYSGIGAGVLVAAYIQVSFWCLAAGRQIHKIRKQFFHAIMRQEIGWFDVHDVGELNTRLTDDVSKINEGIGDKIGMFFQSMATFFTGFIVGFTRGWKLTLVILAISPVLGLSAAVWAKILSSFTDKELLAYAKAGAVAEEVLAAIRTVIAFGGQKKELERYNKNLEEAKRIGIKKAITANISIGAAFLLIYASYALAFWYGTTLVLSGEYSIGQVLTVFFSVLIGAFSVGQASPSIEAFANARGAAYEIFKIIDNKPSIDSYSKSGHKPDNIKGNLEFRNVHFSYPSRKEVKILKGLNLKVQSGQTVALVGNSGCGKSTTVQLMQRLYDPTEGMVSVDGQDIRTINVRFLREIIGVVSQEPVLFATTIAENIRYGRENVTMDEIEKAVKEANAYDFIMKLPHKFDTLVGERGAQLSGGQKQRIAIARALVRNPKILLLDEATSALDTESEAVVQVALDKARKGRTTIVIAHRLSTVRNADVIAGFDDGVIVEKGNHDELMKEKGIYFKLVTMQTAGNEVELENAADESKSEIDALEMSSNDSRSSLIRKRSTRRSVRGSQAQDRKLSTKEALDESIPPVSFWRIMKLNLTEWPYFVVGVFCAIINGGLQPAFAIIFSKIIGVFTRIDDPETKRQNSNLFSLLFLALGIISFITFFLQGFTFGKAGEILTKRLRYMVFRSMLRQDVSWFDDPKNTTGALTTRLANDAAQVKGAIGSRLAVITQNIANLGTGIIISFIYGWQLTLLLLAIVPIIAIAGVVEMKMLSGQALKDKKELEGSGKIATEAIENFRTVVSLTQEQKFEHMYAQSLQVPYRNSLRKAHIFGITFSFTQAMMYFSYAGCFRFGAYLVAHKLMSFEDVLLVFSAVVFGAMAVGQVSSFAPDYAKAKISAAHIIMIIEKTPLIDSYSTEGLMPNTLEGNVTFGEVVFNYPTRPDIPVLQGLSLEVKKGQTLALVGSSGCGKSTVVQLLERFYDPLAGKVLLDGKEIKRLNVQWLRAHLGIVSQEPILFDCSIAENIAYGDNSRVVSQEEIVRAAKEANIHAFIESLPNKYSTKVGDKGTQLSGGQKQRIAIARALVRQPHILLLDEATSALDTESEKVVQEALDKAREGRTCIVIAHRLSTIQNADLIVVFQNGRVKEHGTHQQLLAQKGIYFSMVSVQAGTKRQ

For `CCCCCCCCCCCCCCCC(=O)OC[C@H](O)[C@H]1OC(=O)C(O)=C1O` [Ascorbyl palmitate (AP), Ascorbyl palmitate], the “% Uptake of 3H-NMQ P-gp” value (P-gp [1]) was 86.9 ± 12.4%, the inhibition at 20 min, 200 µM (P-gp [1]) was under 50% and the “Max Intestinal Conc (µM) in 250 mL Fluid” value [2] was 96.5 µM. The LogP [3] was 6, the IC50 (OATP2B1 [4]) was 26 µM and 25.5 µM and the IC50 (OATP2B1 [5]; IC50 OATP2B1, substrate 3H-estrone sulfate, mean ± SD of three independent experiments) was 23 ± 10 µM. The IC50 (OATP2B1 [5]; IC50 with preincubation, OATP2B1 expressing cells pre-incubated 30 minutes, mean ± SD of three independent experiments) was 95 ± 11.7 µM, the “Effect of 30 min pre-incubation on inhibition potency” value (OATP2B1 [5]; OATP2B1-expressing cells pre-incubated for 30 min) was “did not further affect their inhibition potency” and the “% Uptake of 3H-ES OATP2B1” value (OATP2B1 [5]) was 28.3 ± 11.2%. The IC50 at 10 min (OATP2B1 [5]; human, HEK-293 cells that express OATP2B1, probe 3H-estrone sulfate, IC50 without preincubation, OATP2B1 expressing cells, mean ± SD of three independent experiments) was 159 ± 65.9 µM, the inhibition at 10 min, 200 µM (OATP2B1 [5]; human, HEK-293 cells that express OATP2B1, probe 3H-estrone sulfate, Inhibition of OATP2B1, 200 µM, 3H-estrone sulfate) was over 50% and the “% Uptake of 3H-CCK8 BCRP” value (BCRP) was 50.9 ± 9.9%. For the same molecule, the inhibition at 20 min, 200 µM (BCRP) was under 50%.

In the case of `CC(C)c1cc2c(c(O)c1O)[C@@]1(C(=O)O)CCCC(C)(C)[C@@H]1CC2` [Carnosic acid], the “% Uptake of 3H-NMQ P-gp” value (P-gp [1]) is listed as 0.0 ± 10.1%, the inhibition at 20 min, 200 µM (P-gp [1]) is listed as at least 50% and the “P-gp inhibition in ATPase assays” value (P-gp [6]) is listed as “identified as a P-gp inhibitor”. The LogP [3] was 4.9, the “% Uptake of 3H-ES OATP2B1” value (OATP2B1 [5]) was 18.8 ± 5.6% and the inhibition at 10 min, 200 µM (OATP2B1 [5]; human, HEK-293 cells that express OATP2B1, probe 3H-estrone sulfate) was at least 50%. For the same molecule, the “% Uptake of 3H-CCK8 BCRP” value (BCRP) was 4.5 ± 4.8% and the inhibition at 20 min, 200 µM (BCRP) was at least 50%.

In the case of `O=S(O)S(=O)(=O)O` [Sodium metabisulfite], the “% Uptake of 3H-NMQ P-gp” value (P-gp [1]) is listed as 78.8 ± 17.5%, the LogP [3] is listed as -3.7 and the “% Uptake of 3H-ES OATP2B1” value (OATP2B1 [5]) is listed as 118.9 ± 31.7%. The “% Uptake of 3H-CCK8 BCRP” value (BCRP) was 94.5 ± 8.2%.

For `O=S([O-])[O-].[Na+].[Na+]` [Sodium sulfite], the “% Uptake of 3H-NMQ P-gp” value (P-gp [1]) is listed as 77.7 ± 33.7%, the LogP [3] is listed as -4 and the “% Uptake of 3H-ES OATP2B1” value (OATP2B1 [5]) is listed as 92.9 ± 4.5%. The “% Uptake of 3H-CCK8 BCRP” value (BCRP) was 99.7 ± 5.5%.

In the case of `O.O.O.O.O.O=S([O-])([O-])=S.[Na+].[Na+]` [Sodium thiosulfate, pentahydrate], the “% Uptake of 3H-NMQ P-gp” value (P-gp [1]) is listed as 77.4 ± 20%, the LogP [3] is listed as 0.048 and the “Inhibition of intestinal transporters, previous assessment” value (OATP2B1, P-gp, and BCRP) is listed as “found not to inhibit these transporters”. The “% Uptake of 3H-ES OATP2B1” value (OATP2B1 [5]) was 104.4 ± 2.4% and the “% Uptake of 3H-CCK8 BCRP” value (BCRP) was 114.2 ± 22.8%.

In the case of Vitamin E, the “% Uptake of 3H-NMQ P-gp” value (P-gp [1]) is listed as 67.9 ± 24%, the “Inhibition of intestinal transporters, previous assessment” value (OATP2B1, P-gp, and BCRP) is listed as “found not to inhibit these transporters” and the “% Uptake of 3H-ES OATP2B1” value (OATP2B1 [5]) is listed as 83.5 ± 20.9%. For the same molecule, the “% Uptake of 3H-CCK8 BCRP” value (BCRP) was 81.0 ± 12.6%.

Reference: paper PMC11124870, “Effect of Antioxidants in Medicinal Products on Intestinal Drug Transporters” (Pharmaceutics, 2024)
